Test results taken from patent US20070197599A1, “HYDROXYLAMINES AND DERIVATIVES AS ANTI-ANGIOGENIC AGENTS” (priority 2006, published 2007).
Where two headings read alike, the source gives them in different places.

Experiments:
[1] = system: H2O2-induced angiogenesis in the CAM model; assay: H2O2-induced angiogenesis in the chick chorioallantoic membrane (CAM) model; assay type: in vivo; details: for inhibition at 88 µM: Gallus gallus
Description: Neovascularization was examined by previously described methods (see references at the end of Example 5). Ten-day-old fertilized chicken eggs were incubated at 37° C. with 55% relative humidity. In the dark with the help of candling lamp and using a hypodermic needle a small hole was punctured in the shell covering the air sac. A second hole was punctured on the wider side of the egg above an avascular area of the embryonic membrane. An artificial air sac was created below the second hole by applying gentle vacuum to the first hole using a small rubber squeeze bulb. The vacuum caused the separation of chorioallantoic membrane (CAM) from the shell. An approximately 1.0 cm^2 widow was cut in the shell over the dropped CAM with the use of a mini drill. The underlying CAM was accessed through this small window.
Filter disks were punched using a small puncher from filter paper #1 (Whatman International, United Kingdom). Filter disks were soaked in 3 mg/ml cortisone acetate solution (95% ethanol and water) and air-dried under sterile condition. For inducing angiogenesis, sterile filter disks were saturated with bFGF (1 μg/ml) or other pro-angiogenesis factors and control disks were saturated with PBS without Calcium and Magnesium.
Using sterile forceps one filter/CAM was placed from the window. The window was sealed with Highland brand transparent tape. After 24 hr, 10-25 µl of test agent (inhibitor) was injected intravenously or added topically into the CAM membrane of bFGF or other pro-angiogenesis factors stimulated CAMs. • Control filter disks received PBS without Calcium and Magnesium. • After 48 hr, CAM tissue directly beneath filter disk was harvested and placed in a 35-mm Petri dish. Eight-Ten eggs/treatment group was used.
A pro-angiogenic agent (see Examples, below) was added to induce new blood vessel branches on the CAM of 10-day old embryos. Sterile disks of #1 filter paper (Whatman International, United Kingdom) were pre-treated with 3 mg/ml cortisone acetate, and air dried under sterile conditions. The disks were then suspended in PBS (Phosphate Buffered Saline) and placed on growing CAMs. Filters treated with TPH (TEMPOL-H) or TEMPOL and/or H2O2 or TPH and/or bFGF or VEGF were placed on the first day of the 3-day incubation.
Digital Images and Microscopic analysis of CAM sections: CAM sections from Petri dish were examined using SV6 stereomicroscope (Karl Zeiss) at 50× magnification. Digital images were captured using a 3-CCD color video camera system (Toshiba America, New York, N.Y.). These images were analyzed using Image-Pro Plus software (Media Cybernetics). The number of branch points in blood vessels within the circular region superimposed to the area of a filter disk was counted for each section. After incubation at 37° C. with 55% relative humidity for 3 days, the CAM tissue directly beneath each filter disk was resected from control and treated CAM samples. Tissues were washed three times with PBS. Sections were placed in a 35-mm Petri dish (Nalge Nunc; Rochester, N.Y.) and were examined under a SV6 stereomicroscope (Karl Zeiss; Thornwood, N.Y.) at 50× magnification. Digital images of CAM sections adjacent to filters were collected using a 3-CCD color video camera system (Toshiba America; New York, N.Y.) and analyzed with the Image-Pro Plus software (Media Cybernetics; Silver Spring, Md.). The number of vessel branch points contained in a circular region equal to the area of a filter disk was counted for each section. Percent inhibition data are expressed as the quotient of the experimental value minus the negative control value divided by the difference between the positive control value and the negative control value. One image was counted in each CAM preparation, and findings from eight CAM preparations were analyzed for each treatment condition. In addition, each experiment was performed three times. […]

mouse V79 cells = details: Mitchell et al., 2000; cited from earlier work
lens endothelial cells = details: in vitro; Sasaki et al., 1998; cited from earlier work
[2] = system: selenite induced cataract; details: mice; cited from earlier work

Q: Which results are given for `CC1(C)CC(O)CC(C)(C)N1[O]` [TEMPOL, 4-hydroxy-2,2,6,6-tetramethylpiperidine-N-oxyl radical, reference compound]?
A: inhibition of angiogenesis induced by super-maximal concentrations of H2O2 ([1]; CAM model, Tables 1A and 1B): effectively inhibited; inhibition at 88 µM ([1]; read-out: % Inhibition ± SD, H2O2 (88 μM, 30 ng) + 100 μg test agent): 32.1 ± 14.1%; inhibition at 88 µM ([1]; read-out: % Inhibition ± SD, H2O2 (88 μM, 30 ng) + 200 μg test agent): 32.5 ± 12.1%; inhibition at 88 µM ([1]; read-out: % Inhibition ± SD, H2O2 (88 μM, 30 ng) + 400 μg test agent): 30.1 ± 8.7%; inhibition at 88 µM ([1]; read-out: % Inhibition ± SD, H2O2 (88 μM, 30 ng) + 800 μg test agent): 60.9 ± 3.2%; radioprotection of mouse V79 cells (mouse V79 cells): concentration dependent; prevention of X-ray radiation damage to lens endothelial cells (lens endothelial cells): prevented X-ray radiation damage; prevention of selenite induced cataract [2]: not effective
